Assay results published in patent publication US20030113813A1, “Methods and devices for the integrated discovery of cell culture environments” (priority 2001, published 2003).

Test system: MC3T3-E1 cells
Test: Cell attachment and growth on modified (HA-coated, periodate-oxidized) surfaces carrying bioactive agents
Format: cell-based, murine
Settings: for cell attachment and growth: FIG. 4A, immobilized HA surface treated with lowest (3 mM) periodate concentration, collagen 3.2 mg/ml, laminin 2 mg/ml
Description: MC3T3-E1 cells were used to determine the effect of different bioactive agents for creation of bioactive surfaces influencing the growth and differentiation of these osteoblasts (also considered to be osteogenic stem cells). These cells are from a clonal line of murine calvaria-derived osteoblast (establishment of a clonal osteogenic cell line from newborn mouse calvaria describe in J Oral Biol 23:899 (1981)). The cells are maintained in α-MEM (GIBCO Catalog #12561) supplemented with 2% fetal calf serum (FCS; inactivated) and 100 units or μg/ml penicillin/streptomycin.
The cells were seeded at a concentration of approximately 10^4 cells/20 ml culture medium in a 250 ml canted neck polystyrene tissue culture-treated flask. Cells were cultured until they reach about 2×10^6 cells/flask. Cells were harvested and resuspended in 5 ml of α-MEM with 2% FCS to a final cell concentration of about 4×10^4 cells/100 μl.
The surface modified slide was placed into a polystyrene Petri dish and covered with the cells for 30 minutes. […] To quantitate cell attachment and growth, an image of the slide or other surface after staining with hematoxylin/eosin was captured using a color scanner, and the density determined using the Scion Image analysis program.

Row | Substance | cell density on bioactive agent (FIG. 2, cells grown on microarray of bioactive agents coupled to HA surface, fluorescent staining) | cell attachment and growth | cell growth on ECM peptide surface vs. control surface (FIGS. 4B-4F, RGDSP 1 mg/ml deposited on oxidized HA surface)
1 | laminin | cell density was greater on Vitrogen™ than on laminin | supported cell attachment and growth | –
2 | collagen | – | supported cell attachment and growth | –
3 | Arg-Gly-Asp-Ser-Pro (RGDSP) (printed: Arg-Gly-Asp-Ser-Pro) [ECM adhesion peptide from AnaSpec Inc, reference compound] | – | – | cells grew only on the surfaces onto which RGDSP was deposited
